Reference: ChEMBL document CHEMBL1201862, “PubChem BioAssay data set” (2004)
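96-well plates; 48 h exposure; 5 concentrations. Endpoints by linear interpolation between flanking doses. Not reached: highest tested concentration assigned. Abbreviation: GI50, concentration required for 50% inhibition of growth.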 Calls of active or inactive are those of the source. Rule as the data show it: active = GI50 up to about 1.1 µM and inactive = higher.

Experiments:
Test in all cases: inhibition of tumour cell growth, NCI panel, 48 h
DU-145 = tested on: DU-145
HCT-15 = tested on: HCT-15
SK-OV-3 = tested on: SK-OV-3
HT-29 = tested on: HT-29
SF-539 = tested on: SF-539
RPMI-8226 = tested on: RPMI-8226
SF-295 = tested on: SF-295
786-0 = tested on: 786-0
KM12 = tested on: KM12
BT-549 = tested on: BT-549
OVCAR-5 = tested on: OVCAR-5
MOLT-4 = tested on: MOLT-4
SK-MEL-2 = tested on: SK-MEL-2
SN12C = tested on: SN12C
HOP-62 = tested on: HOP-62
NCI/ADR-RES = tested on: NCI/ADR-RES
U-251 = tested on: U-251
RXF 393 = tested on: RXF 393
CCRF-CEM = tested on: CCRF-CEM

## O=C1Nc2ccccc2/C1=N\c1cccc2ncccc12
DU-145
  GI50: > 100 µM (inactive)
HCT-15
  GI50: 68.1 µM
SK-OV-3
  GI50: 26.7 µM (inactive)
HT-29
  GI50: 58.3 µM (inactive)
SF-539
  GI50: > 100 µM (inactive)
RPMI-8226
  GI50: 36.5 µM (inactive)
SF-295
  GI50: 53.3 µM (inactive)
786-0
  GI50: > 100 µM (inactive)
KM12
  GI50: 95.1 µM (inactive)
BT-549
  GI50: > 100 µM (inactive)
OVCAR-5
  GI50: 63 µM (inactive)
MOLT-4
  GI50: 30 µM (inactive)
SK-MEL-2
  GI50: > 100 µM (inactive)
SN12C
  GI50: > 100 µM (inactive)
HOP-62
  GI50: 46.5 µM (inactive)
NCI/ADR-RES
  GI50: > 100 µM (inactive)
U-251
  GI50: 67.5 µM (inactive)
RXF 393
  GI50: > 100 µM (inactive)

## CC(C)(C)N/N=C(\C(=O)Nc1ccc([N+](=O)[O-])cc1[N+](=O)[O-])c1nc2ccc([N+](=O)[O-])cc2nc1O
DU-145
  GI50: > 100 µM (inactive)
CCRF-CEM
  GI50: 98.9 µM (inactive)
HCT-15
  GI50: 43.4 µM
SK-OV-3
  GI50: > 100 µM (inactive)
HT-29
  GI50: > 100 µM (inactive)
SF-539
  GI50: > 100 µM (inactive)
RPMI-8226
  GI50: 13.2 µM (inactive)
SF-295
  GI50: 31.5 µM (inactive)
786-0
  GI50: > 100 µM (inactive)
KM12
  GI50: 34.4 µM (inactive)
BT-549
  GI50: > 100 µM (inactive)
OVCAR-5
  GI50: > 100 µM (inactive)
MOLT-4
  GI50: 35.2 µM (inactive)
SK-MEL-2
  GI50: > 100 µM (inactive)
SN12C
  GI50: > 100 µM (inactive)
NCI/ADR-RES
  GI50: > 100 µM (inactive)
U-251
  GI50: > 100 µM (inactive)
RXF 393
  GI50: > 100 µM (inactive)

## COc1cc2[nH]c(=O)c3cc(C)cc4c(Cl)nc(c1OC)c2c43
DU-145
  GI50: 61.8 µM (inactive)
CCRF-CEM
  GI50: 27.9 µM (inactive)
HCT-15
  GI50: > 100 µM
SK-OV-3
  GI50: 37.9 µM (inactive)
HT-29
  GI50: 89.9 µM (inactive)
SF-539
  GI50: 29.9 µM (inactive)
RPMI-8226
  GI50: 34.9 µM (inactive)
SF-295
  GI50: 43.7 µM (inactive)
786-0
  GI50: 20 µM (inactive)
KM12
  GI50: 96.6 µM (inactive)
BT-549
  GI50: 35 µM (inactive)
OVCAR-5
  GI50: > 100 µM (inactive)
MOLT-4
  GI50: 42.8 µM (inactive)
SK-MEL-2
  GI50: 32.9 µM (inactive)
HOP-62
  GI50: 23.6 µM (inactive)
NCI/ADR-RES
  GI50: > 100 µM (inactive)
U-251
  GI50: 38.6 µM (inactive)
RXF 393
  GI50: 21 µM (inactive)

## COc1ccc(N(C(=O)Nc2ccc(Cl)c(Cl)c2)C2c3cccn3C(=O)N2c2ccc(Cl)c(Cl)c2)cc1 (stereo unspecified)
DU-145
  GI50: > 100 µM (inactive)
CCRF-CEM
  GI50: 36 µM (inactive)
HCT-15
  GI50: 94 µM
HT-29
  GI50: > 100 µM (inactive)
SF-539
  GI50: > 100 µM (inactive)
RPMI-8226
  GI50: 0.0724 µM (active)
SF-295
  GI50: 18.3 µM (inactive)
786-0
  GI50: > 100 µM (inactive)
KM12
  GI50: 30.5 µM (inactive)
BT-549
  GI50: > 100 µM (inactive)
OVCAR-5
  GI50: 16.4 µM (inactive)
MOLT-4
  GI50: 1.54 µM (inactive)
SK-MEL-2
  GI50: > 100 µM (inactive)
SN12C
  GI50: > 100 µM (inactive)
NCI/ADR-RES
  GI50: > 100 µM (inactive)
U-251
  GI50: > 100 µM (inactive)
RXF 393
  GI50: > 100 µM (inactive)

## COC(=O)C1=C(O)C(C(=O)OC)[C@]2(O)[C@H](C(=O)OC)[C@H]1C[C@@H](c1c(Cl)cccc1Cl)[C@H]2C(=O)OC (stereo partly specified)
DU-145
  GI50: 2.68 µM (inactive)
HCT-15
  GI50: 1.74 µM
SK-OV-3
  GI50: 3.96 µM (inactive)
HT-29
  GI50: 2.33 µM (inactive)
SF-539
  GI50: 1.93 µM (inactive)
RPMI-8226
  GI50: 1.51 µM (inactive)
SF-295
  GI50: 2.67 µM (inactive)
786-0
  GI50: 1.73 µM (inactive)
KM12
  GI50: 2.55 µM (inactive)
BT-549
  GI50: 1.88 µM (inactive)
MOLT-4
  GI50: 1.81 µM (inactive)
SK-MEL-2
  GI50: 1.49 µM (inactive)
SN12C
  GI50: 2.23 µM (inactive)
HOP-62
  GI50: 3.07 µM (inactive)
NCI/ADR-RES
  GI50: 2.04 µM (inactive)
U-251
  GI50: 1.32 µM (inactive)
RXF 393
  GI50: 1.75 µM (inactive)

## O=C(O)/C=C/C=C/c1ccc2c(c1)OCO2 [PIPERIC ACID]
DU-145
  GI50: > 100 µM (inactive)
HCT-15
  GI50: > 100 µM
SK-OV-3
  GI50: > 100 µM (inactive)
HT-29
  GI50: > 100 µM (inactive)
SF-539
  GI50: > 100 µM (inactive)
RPMI-8226
  GI50: > 100 µM (inactive)
SF-295
  GI50: > 100 µM (inactive)
786-0
  GI50: > 100 µM (inactive)
KM12
  GI50: > 100 µM (inactive)
BT-549
  GI50: > 100 µM (inactive)
OVCAR-5
  GI50: > 100 µM (inactive)
MOLT-4
  GI50: > 100 µM (inactive)
SK-MEL-2
  GI50: > 100 µM (inactive)
SN12C
  GI50: > 100 µM (inactive)
HOP-62
  GI50: > 100 µM (inactive)
NCI/ADR-RES
  GI50: > 100 µM (inactive)
U-251
  GI50: > 100 µM (inactive)
RXF 393
  GI50: > 100 µM (inactive)
